Measurements published in patent US20140336182A1, “Aurora Kinase Modulators and Method of Use” (Amgen Inc., priority 2013, published 2014).

test system: HeLa cells; assay: HeLa cell 24 hr ploidy assay (DNA content); type: cell-based; settings: HeLa cells, 4N ploidy, average, read-out: 24h_4NPloidy EC50_IP (uM Avg)
Protocol: HeLa cell 24 hr ploidy assay protocol
The purpose of this assay is to evaluate the ability of selected individual compounds to induce Deoxyribonucleic acid (DNA) content (ploidy) in cells through failed cell division. Cell cycle analysis is a rapid and efficient way to evaluate the status of DNA content (ploidy) of a given cell. HeLa cells (1×10^4 HeLa cells/well) in 100 ul of media (MEM+10% FBS) were plated in 96-well plates (Packard View) and cultured for 24 hrs at 37° C. maintained in a 5% CO2 atmosphere. […] The compounds were serially diluted in DMSO (0.25% final concentration). The cells were fixed (3.7% Formaldehyde and 1% glutaraldehyde) and permeabilized (1×PBS with 1% BSA and 0.2% Triton X-100) in preparation for nuclear staining. The well plates were stained for 45 minutes at RT in the dark using Hoechest 33342 nuclear stain at 0.5 ug.ml (Stock of 10 mg/ml, Invitrogen, CA, Cat #H3570). The nuclear stain was removed by aspiration and the cells were washed with wash buffer. A Cellomics Array Scan Vti plate reader was used to acquire the DNA ploidy data of the cells using Cell Cycle bioapplication. Numbers for each of “valid cell count/well”, “% of 4N cells” and “% of >4Ncells” were calculated with the assistance of an Activity Base 5.1ca software and dose curves were generated using an XLFit software. With XLFit, final EC50 IP and EC50 transit values, as well as the Max and Min, were calculated for each curve.

EC50 | SMILES
0.009 µM | c1ccc(-c2nnc(Nc3ccc(Sc4ccnc5cccnc45)cc3)c3ccccc23)cc1 [compound 285]

same assay, conditions: Homo sapiens, HeLa, 4N ploidy, average, read-out: 24h_4NPloidy EC50_IP (uM Avg)

EC50 | SMILES
0.019 µM | COc1cc2ncnc(Oc3ccc(Nc4nnc(-c5ccccc5)c5ccccc45)cc3)c2cc1OC [compound 98, N-(4-((6,7-bis(methyloxy)-4-quinazolinyl)oxy)phenyl)-4-phenyl-1-phthalazinamine]
0.39 µM | COc1cnc2c(Oc3ccc(Nc4nnc(-c5ccccc5)cc4C)cc3)ccnc2c1 [compound 107]
0.028 µM | CCc1cc(-c2ccccc2)nnc1Nc1ccc(Oc2ccnc3cc(C(N)=O)ccc23)cc1 [compound 49, 4-((4-((4-ethyl-6-phenyl-3-pyridazinyl)amino)phenyl)oxy)-7-quinolinecarboxamide]
0.167 µM | Cc1csc(-c2nnc(Nc3ccc(Oc4ccnc5cc(C(N)=O)ccc45)cc3)c3ccccc23)n1 [compound 95]
0.03 µM | COc1cc2nccc(Oc3ccc(Nc4nnc(-c5ccc(C)cn5)c5ccccc45)cc3)c2cn1 [compound 103]
0.023 µM | COc1cnc2c(Oc3ccc(Nc4nnc(-c5cccc(OC)n5)c5ccccc45)cc3)ccnc2c1 [compound 99]
0.006 µM | Cc1ccc(-c2nnc(Nc3ccc(Oc4ccnc5cc(C#N)ccc45)cc3)c3ccccc23)cc1 [compound 88]
0.025 µM | COc1ccc(-c2nnc(Nc3ccc(Oc4ccnc5cc(C#N)ccc45)cc3)c3ccccc23)cc1 [compound 141, 4-((4-((4-(4-(methyloxy)phenyl)-1-phthalazinyl)amino)phenyl)oxy)-7-quinolinecarbonitrile]
0.116 µM | Brc1ccc2c(Oc3ccc(Nc4nnc(-c5ccccc5)c5ccccc45)cc3)ccnc2c1 [compound 133]
0.08 µM | COc1cnc2c(Oc3ccc(Nc4nnc(-c5ccc(C(C)(C)C)cc5)c5ccccc45)cc3)ccnc2c1 [Example 38, 4-(4-tert-butylphenyl)-N-(4-(7-methoxy-1,5-naphthyridin-4-yloxy)phenyl)phthalazin-1-amine]
0.066 µM | COc1cc2nccc(Oc3ccc(Nc4nnc(-c5cc(C)ccn5)c5ccccc45)cc3)c2cc1OC [compound 117]
0.025 µM | COc1cc2nccc(Oc3ccc(Nc4nnc(N5CCCCC5)c5ccccc45)cc3)c2cc1OC [compound 75]
0.297 µM | COc1cc2nccc(Oc3ccc(Nc4nnc(N5CCN(C)CC5)c5ccccc45)cc3)c2cn1 [compound 109]

same assay, conditions: Homo sapiens, HeLa, HeLa cells, 4N ploidy, average, read-out: 24h_4NPloidy EC50_IP (uM Avg)

EC50 | SMILES
0.02 µM | COc1cnc2c(Sc3ccc(Nc4nnc(N5CCC[C@@H](OC)C5)c5ccccc45)cc3)ccnc2c1 [compound 532]
0.055 µM | c1ccc(-c2nnc(Nc3ccc(Sc4ccnc5[nH]ncc45)cc3)c3ccccc23)cc1 [compound 352]
0.016 µM | Cc1csc(-c2nnc(Nc3ccc(Sc4ccnc5ccncc45)cc3)c3ccccc23)c1 [compound 428]
0.024 µM | COc1cnc2c(Sc3ccc(Nc4nnc(-c5ccccc5F)c5ccccc45)cc3)ccnc2c1 [compound 495]
0.397 µM | Clc1ccc(-c2nnc(Nc3ccc(Oc4ncnc5[nH]ccc45)cc3)c3ccccc23)cc1 [compound 290]
0.387 µM | c1ccc(-c2nnc(Nc3ccc(Oc4ccnc5ccc(N6CCOCC6)cc45)cc3)c3ccccc23)cc1 [compound 264]
0.027 µM | c1ccc(-c2nnc(Nc3ccc(Oc4ccnc5cc(-c6ccsc6)ccc45)cc3)c3ccccc23)cc1 [compound 339]
> 1.2 µM | CCc1cc(N2CCCCC2)nnc1Nc1ccc(Oc2ccnc3cc(OC)cnc23)cc1 [compound 321]
< 0.0023 µM | COc1cc2nccc(Sc3ccc(Nc4nnc(-c5ccc(Cl)cc5)c5ccccc45)cc3)c2[nH]c1=O [Example 406, 8-(4-(4-(4-Chlorophenyl)phthalazin-1-ylamino)phenylthio)-3-methoxy-1,5-naphthyridin-2(1H)-one]
0.004 µM | COc1cnc2c(Sc3ccc(Nc4nnc(-c5ccc(Cl)cc5)c5ccccc45)cc3)ccnc2c1 [compound 232]
0.085 µM | COc1cc2nccc(Oc3ccc(Nc4nnc(-c5ccccc5)c5ccccc45)cc3)c2cc1C#N [Example 392, 7-Methoxy-4-(4-(4-phenylphthalazin-1-ylamino)phenoxy)quinoline-6-carbonitrile]
0.1 µM | COc1cnc2c(Sc3ccc(Nc4nnc(C(C)C)c5ccccc45)cc3)ccnc2c1 [compound 558]
0.087 µM | COc1cnc2c(Oc3ccc(Nc4nnc(-c5ccc6c(c5)OCCO6)c5ccccc45)cc3)ccnc2c1 [compound 166]
0.028 µM | COc1cnc2c(Oc3ccc(Nc4nnc(N5CC[C@H]6CCCC[C@@H]6C5)c5ccccc45)cc3)ccnc2c1 [compound 586]
0.109 µM | Cc1ccc(-c2nnc(Nc3ccc(Oc4ccnc5ccncc45)cc3)c3ccccc23)nc1 [compound 432]
0.1 µM | COCCOc1ccc(-c2nnc(Nc3ccc(Sc4ccnc5cc(OC)cnc45)cc3)c3ccccc23)cc1OCCOC [compound 473]
> 1.2 µM | c1ccc(-c2nnc(Nc3ccc(Sc4ncnc5ccccc45)cc3)c3ccccc23)cc1 [compound 561]
0.059 µM | CCOc1nc(-c2nnc(Nc3ccc(Oc4ccnc5cc(OC)cnc45)cc3)c3ccccc23)cs1 [compound 175]
0.835 µM | COc1cnc2c(Oc3ccc(Nc4nnc(-c5ccc(Cl)cc5OC)c5ccccc45)cc3)ccnc2c1 [compound 253]
0.004 µM | COc1cc(OC)c2c(Oc3ccc(Nc4nnc(-c5ccc(Cl)cc5)c5ccccc45)cc3)ncnc2c1 [compound 590]
0.028 µM | COc1cc2nccc(Sc3ccc(Nc4nnc(-c5ccc(Cl)cc5)c5ccccc45)cc3)c2nc1OC [compound 598]
0.148 µM | N#Cc1cc2nccc(Sc3ccc(Nc4nnc(-c5ccccc5)c5ccccc45)cc3)c2s1 [compound 458]

EC50 | SMILES
0.051 µM | Cc1cccc(-c2nnc(Nc3ccc(Sc4ccnc5cccnc45)cc3)c3ccccc23)n1 [compound 421]
0.061 µM | COc1cnc2c(Oc3ccc(Nc4nnc(-c5ccc(OC)c(F)c5)c5ccccc45)cc3)ccnc2c1 [compound 227]
0.078 µM | FC(F)(F)Oc1ccc2c(Oc3ccc(Nc4nnc(-c5ccc(Cl)cc5)c5ccccc45)cc3)ccnc2c1 [compound 498]
0.011 µM | COc1ccc2nccc(Oc3ccc(Nc4nnc(-c5ccc(Cl)cn5)c5ccccc45)cc3)c2c1 [compound 278]
0.004 µM | COc1cnc2c(Oc3ccc(Nc4nnc(-c5cccc(N(C)C)c5)c5ccccc45)cc3)ccnc2c1 [compound 258]
0.023 µM | N#Cc1ccc2c(Sc3ccc(Nc4nnc(-c5ccccc5)c5ccccc45)cc3)ccnc2c1 [compound 208]
0.008 µM | COc1cnc2c(Sc3ccc(Nc4nnc(-c5ccc(Cl)cn5)c5ccccc45)cc3)ccnc2c1 [compound 304, 4-(5-chloro-2-pyridinyl)-N-(4-((7-(methyloxy)-1,5-naphthyridin-4-yl)thio)phenyl)-1-phthalazinamine]
0.012 µM | COc1ccc2nccc(Sc3ccc(Nc4nnc(-c5ccccc5)c5ccccc45)cc3)c2c1 [compound 292, N-(4-((6-(methyloxy)-4-quinolinyl)thio)phenyl)-4-phenyl-1-phthalazinamine]
> 1.2 µM | C[Si](C)(C)c1cc2nccc(Sc3ccc(Nc4nnc(Cl)c5ccccc45)cc3)c2o1 [compound 484]
0.369 µM | N#Cc1ccc(-c2nnc(Nc3ccc(Oc4ccnc5cc(C#N)ccc45)cc3)c3ccccc23)cc1 [compound 217]
0.074 µM | COc1cnc2c(Oc3ccc(Nc4nnc(-c5cnn(C)c5)c5ccccc45)cc3)ccnc2c1 [compound 216]
0.016 µM | Clc1ccc(-c2nnc(Nc3ccc(Sc4ccnc5[nH]ccc45)cc3)c3ccccc23)cc1 [compound 330]
0.08 µM | COc1cnc2c(Oc3ccc(Nc4nnc(-c5cnc6[nH]ccc6c5)c5ccccc45)cc3)ccnc2c1 [compound 280]
0.008 µM | Fc1ccc2c(Oc3ccc(Nc4nnc(-c5ccc(Cl)cc5)c5ccccc45)cc3)ccnc2c1 [compound 455]
0.052 µM | Cc1csc(-c2nnc(Nc3ccc(Sc4ccnc5cc(OC(F)(F)F)ccc45)cc3)c3ccccc23)c1 [compound 499]
> 1.2 µM | Brc1cnc2c(Oc3ccc(Nc4nnc(-c5ccccc5)c5ccccc45)cc3)ncnc2c1 [compound 599]
0.06 µM | FC(F)(F)Oc1ccc2nccc(Sc3ccc(Nc4nnc(-c5ccccc5)c5ccccc45)cc3)c2c1 [compound 571]
0.037 µM | COc1cnc2c(Sc3ccc(Nc4nnc(OCCC5CCCCN5)c5ccccc45)cc3)ccnc2c1 (stereo not shown) [Example 403, N-(4-(7-Methoxy-1,5-naphthyridin-4-ylthio)phenyl)-4-(2-(piperidin-2-yl)ethoxy)phthalazin-1-amine]
0.044 µM | Fc1cc(F)c2c(Sc3ccc(Nc4nnc(-c5ccc(Cl)cc5)c5ccccc45)cc3)ccnc2c1 [compound 342]
0.041 µM | N#Cc1cc2nccc(Sc3ccc(Nc4nnc(-c5ccc(Cl)cn5)c5ccccc45)cc3)c2s1 [compound 460]
0.124 µM | COc1ccc2nccc(Sc3ccc(Nc4nnc(-c5cccc(C)n5)c5ccccc45)cc3)c2n1 [compound 419]
0.036 µM | Cc1ccc(-c2nnc(Nc3ccc(Sc4ccnc5ccoc45)cc3)c3ccccc23)nc1 [compound 482]
